Source: article PMC5884652, “New antimicrobial peptide kills drug-resistant pathogens without detectable resistance” (Oncotarget, 2018)
In brackets after ≈: the same amount, converted by molar mass.

How the values were obtained:
[1] = test system: Proteus vulgaris KCTC 2433; type: cell-based; settings: pH (I or II) not given; 10 mM sodium phosphate buffer, 10% LB; 37° C, 24 h; mean of 3 experiments
Source text: (§1) The method for peptide synthesis has been described in detail previously. E. coli ATCC 25922 (LB media), P. aeruginosa ATCC 15692 (NB+0.5% NaCl media), Listeria monocytogenes ATCC 3710 (LB media), Staphylococcus epidermidis ATCC 12228 (LB media), and S. aureus ATCC 29213 (TSB media) were obtained from the American Type Culture Collection (Manassas, VA, USA). […] E. coli CCARM 1238 was received from the Culture Collection of Antibiotic Resistant Microbes at Seoul Women’s University, Korea. Drug-resistant P. aeruginosa 3543, 3904, 3547, and 4007 and S. aureus 3126, 0027, 5157, 1635, 4761, 5159, 3359, 2122, 1630, 1870, 3511, 5156, and 3518 were resistant strains isolated from patients with otitis media in a Chonnam National University’s hospital.
(§2) The antibacterial activities of AMPs (melittin, clavaspirin, and its analogs) and conventional antibiotic drugs (erythromycin, gentamicin, ampicillin, and piperacidin) were determined using microdilution assays. Bacterial cells were cultured at 37° C in appropriate culture media at pH 5.5 or pH 7.4 until collection during the mid-log phase and suspended in 10 mM sodium phosphate buffer (pH 5.5 or pH 7.4) supplemented with 10% culture medium. Thereafter, 2× serial dilutions of each peptide (0.25–128 μM) or antibiotic (0.25–256 μM) were added to sterile 96-well plates, and aliquots of cell suspension (5 × 10^5 colony forming units (cfu)/mL) were seeded into each well. The samples were then incubated at 37° C for 24 h. At the end of the incubation, the minimum inhibitory concentrations (MICs) of the peptides were determined using a VERSA Max microplate reader (Molecular Devices Co., Sunnyvale, CA, USA) at a wavelength of 600 nm. […] MIC values were calculated as the mean of 3 independent experiments conducted in triplicate.

[2] = test system: Salmonella typhimurium KCTC 1926; type: cell-based; settings: pH (I or II) not given; 10 mM sodium phosphate buffer, 10% LB; 37° C, 24 h; mean of 3 experiments
Source text: as §1, §2

E. coli CCARM1238 = assay: microbe, parasite or virus in culture; type: cell-based, Escherichia coli; settings: pH (I or II) not given; 10 mM sodium phosphate buffer, 10% LB; 37° C, 24 h; mean of 3 experiments
Source text: (§3) The method for peptide synthesis has been described in detail previously. E. coli ATCC 25922 (LB media), P. aeruginosa ATCC 15692 (NB+0.5% NaCl media), Listeria monocytogenes ATCC 3710 (LB media), Staphylococcus epidermidis ATCC 12228 (LB media), and S. aureus ATCC 29213 (TSB media) were obtained from the American Type Culture Collection (Manassas, VA, USA). Bacillus subtilis KCTC 1998 (LB media), Salmonella typhimurium KCTC 1926 (NB media), and Proteus vulgaris KCTC 2433 (NB media) were obtained from the Korean Collection for Type Cultures (Jeollabuk-do, Korea). E. coli CCARM 1238 was received from the Culture Collection of Antibiotic Resistant Microbes at Seoul Women’s University, Korea. Drug-resistant P. aeruginosa 3543, 3904, 3547, and 4007 and S. aureus 3126, 0027, 5157, 1635, 4761, 5159, 3359, 2122, 1630, 1870, 3511, 5156, and 3518 were resistant strains isolated from patients with otitis media in a Chonnam National University’s hospital.
as §2

[3] = test system: Listeria monocytogenes ATCC 3710; type: cell-based; settings: pH (I or II) not given; 10 mM sodium phosphate buffer, 10% LB; 37° C, 24 h; mean of 3 experiments
Source text: as §3, §2

[4] = test system: Staphylococcus epidermidis ATCC 12228; type: cell-based; settings: pH (I or II) not given; 10 mM sodium phosphate buffer, 10% LB; 37° C, 24 h; mean of 3 experiments
Source text: as §3, §2

[5] = test system: Bacillus subtilis KCTC 1998; type: cell-based; settings: pH (I or II) not given; 10 mM sodium phosphate buffer, 10% LB; 37° C, 24 h; mean of 3 experiments
Source text: as §3, §2

P. aeruginosa 3547 = assay: microbe, parasite or virus in culture; type: cell-based, Pseudomonas aeruginosa; settings: pH (I or II) not given; 10 mM sodium phosphate buffer, 10% LB; 37° C, 24 h; mean of 3 experiments
Source text: as §3, §2

P. aeruginosa 3904 = assay: microbe, parasite or virus in culture; type: cell-based, Pseudomonas aeruginosa; settings: pH (I or II) not given; 10 mM sodium phosphate buffer, 10% LB; 37° C, 24 h; mean of 3 experiments
Source text: as §3, §2

P. aeruginosa 3543 = assay: microbe, parasite or virus in culture; type: cell-based, Pseudomonas aeruginosa; settings: pH (I or II) not given; 10 mM sodium phosphate buffer, 10% LB; 37° C, 24 h; mean of 3 experiments
Source text: as §3, §2

P. aeruginosa 4007 = assay: microbe, parasite or virus in culture; type: cell-based, Pseudomonas aeruginosa; settings: pH (I or II) not given; 10 mM sodium phosphate buffer, 10% LB; 37° C, 24 h; mean of 3 experiments
Source text: as §3, §2

S. aureus 3511 = assay: microbe, parasite or virus in culture; type: cell-based, Staphylococcus aureus; settings: pH (I or II) not given, 10 mM sodium phosphate buffer, 10% LB, 37° C, 24 h, mean of 3 experiments
Source text: as §3, §2

S. aureus 3126 = assay: microbe, parasite or virus in culture; type: cell-based, Staphylococcus aureus; settings: pH (I or II) not given, 10 mM sodium phosphate buffer, 10% LB, 37° C, 24 h, mean of 3 experiments
Source text: as §3, §2

S. aureus 1870 = assay: microbe, parasite or virus in culture; type: cell-based, Staphylococcus aureus; settings: pH (I or II) not given, 10 mM sodium phosphate buffer, 10% LB, 37° C, 24 h, mean of 3 experiments
Source text: as §3, §2

S. aureus 5157 = assay: microbe, parasite or virus in culture; type: cell-based, Staphylococcus aureus; settings: pH (I or II) not given, 10 mM sodium phosphate buffer, 10% LB, 37° C, 24 h, mean of 3 experiments
Source text: as §3, §2

S. aureus 1630 = assay: microbe, parasite or virus in culture; type: cell-based, Staphylococcus aureus; settings: pH (I or II) not given, 10 mM sodium phosphate buffer, 10% LB, 37° C, 24 h, mean of 3 experiments
Source text: as §3, §2

S. aureus 2122 = assay: microbe, parasite or virus in culture; type: cell-based, Staphylococcus aureus; settings: pH (I or II) not given, 10 mM sodium phosphate buffer, 10% LB, 37° C, 24 h, mean of 3 experiments
Source text: as §3, §2

S. aureus 3518 = assay: microbe, parasite or virus in culture; type: cell-based, Staphylococcus aureus; settings: pH (I or II) not given, 10 mM sodium phosphate buffer, 10% LB, 37° C, 24 h, mean of 3 experiments
Source text: as §3, §2

S. aureus 3359 = assay: microbe, parasite or virus in culture; type: cell-based, Staphylococcus aureus; settings: pH (I or II) not given, 10 mM sodium phosphate buffer, 10% LB, 37° C, 24 h, mean of 3 experiments
Source text: as §3, §2

S. aureus 4761 = assay: microbe, parasite or virus in culture; type: cell-based, Staphylococcus aureus; settings: pH (I or II) not given, 10 mM sodium phosphate buffer, 10% LB, 37° C, 24 h, mean of 3 experiments
Source text: as §3, §2

S. aureus 0027 = assay: microbe, parasite or virus in culture; type: cell-based, Staphylococcus aureus; settings: pH (I or II) not given, 10 mM sodium phosphate buffer, 10% LB, 37° C, 24 h, mean of 3 experiments
Source text: as §3, §2

S. aureus 1635 = assay: microbe, parasite or virus in culture; type: cell-based, Staphylococcus aureus; settings: pH (I or II) not given, 10 mM sodium phosphate buffer, 10% LB, 37° C, 24 h, mean of 3 experiments
Source text: as §3, §2

S. aureus 5159 = assay: microbe, parasite or virus in culture; type: cell-based, Staphylococcus aureus; settings: pH (I or II) not given, 10 mM sodium phosphate buffer, 10% LB, 37° C, 24 h, mean of 3 experiments
Source text: as §3, §2

S. aureus 5156 = assay: microbe, parasite or virus in culture; type: cell-based, Staphylococcus aureus; settings: pH (I or II) not given, 10 mM sodium phosphate buffer, 10% LB, 37° C, 24 h, mean of 3 experiments
Source text: as §3, §2

P. aeruginosa ATCC 15692 = type: cell-based, Pseudomonas aeruginosa; settings: pH (I or II) not given; 10 mM sodium phosphate buffer, 10% LB; 37° C, 24 h; mean of 3 experiments
Source text: as §3, with “E. coli ATCC 25922 (LB media), P. aeruginosa ATCC 15692 (NB+0.5% NaCl media), Listeria monocytogenes ATCC 3710 (LB media), Staphylococcus epidermidis ATCC 12228 (LB media), and S. aureus ATCC 29213 (TSB media) were obtained from the American Type Culture Collection (Manassas, VA, USA).” left out
as §2, with “Bacterial cells were cultured at 37° C in appropriate culture media at pH 5.5 or pH 7.4 until collection during the mid-log phase and suspended in 10 mM sodium phosphate buffer (pH 5.5 or pH 7.4) supplemented with 10% culture medium.” left out

Structure (SMILES): CC[C@H](C)[C@H](NC(=O)CN)C(=O)NCC(=O)N[C@@H](C)C(=O)N[C@H](C(=O)N[C@@H](CC(C)C)C(=O)N[C@@H](CCCCN)C(=O)N[C@H](C(=O)N[C@@H](CC(C)C)C(=O)N[C@H](C(=O)N[C@H](C(=O)NCC(=O)N[C@@H](CC(C)C)C(=O)N1CCC[C@H]1C(=O)N[C@@H](C)C(=O)N[C@@H](CC(C)C)C(=O)N[C@H](C(=O)N[C@@H](CO)C(=O)N[C@@H](Cc1c[nH]c2ccccc12)C(=O)N[C@H](C(=O)N[C@@H](CCCCN)C(=O)N[C@@H](CCCNC(=N)N)C(=O)N[C@@H](CCCCN)C(=O)N[C@@H](CCCNC(=N)N)C(=O)N[C@@H](CCC(N)=O)C(=O)N[C@@H](CCC(N)=O)C(N)=O)[C@@H](C)CC)[C@@H](C)CC)[C@@H](C)O)[C@@H](C)O)C(C)C)C(C)C [Melittin]
- MIC, P. vulgaris [1]: 2 µM (≈ 5.69 µg/mL)
- MIC, S. typhimurium [2]: 2 µM (≈ 5.69 µg/mL)
- MIC (E. coli CCARM1238): 2 µM (≈ 5.69 µg/mL)
- MIC, L. monocytogenes [3]: 2 µM (≈ 5.69 µg/mL)
- MIC, S. epidermidis [4]: 2 µM (≈ 5.69 µg/mL)
- MIC, B. subtilis [5]: 2 µM (≈ 5.69 µg/mL)
- MIC (P. aeruginosa 3547): 2 µM (≈ 5.69 µg/mL)
- MIC (P. aeruginosa 3904): 2 µM (≈ 5.69 µg/mL)
- MIC (P. aeruginosa 3543): 2 µM (≈ 5.69 µg/mL)
- MIC (P. aeruginosa 4007): 2 µM (≈ 5.69 µg/mL)
- MIC (S. aureus 3511): 4 µM (≈ 11.4 µg/mL)
- MIC (S. aureus 3126): 2 µM (≈ 5.69 µg/mL)
- MIC (S. aureus 1870): 4 µM (≈ 11.4 µg/mL)
- MIC (S. aureus 5157): 2 µM (≈ 5.69 µg/mL)
- MIC (S. aureus 1630): 4 µM (≈ 11.4 µg/mL)
- MIC (S. aureus 2122): 4 µM (≈ 11.4 µg/mL)
- MIC (S. aureus 3518): 4 µM (≈ 11.4 µg/mL)
- MIC (S. aureus 3359): 4 µM (≈ 11.4 µg/mL)
- MIC (S. aureus 4761): 4 µM (≈ 11.4 µg/mL)
- MIC (S. aureus 0027): 2 µM (≈ 5.69 µg/mL)
- MIC (S. aureus 1635): 2 µM (≈ 5.69 µg/mL)
- MIC (S. aureus 5159): 8 µM (≈ 22.8 µg/mL)
- MIC (S. aureus 5156): 4 µM (≈ 11.4 µg/mL)
- MIC, P. aeruginosa (P. aeruginosa ATCC 15692): 2 µM (≈ 5.69 µg/mL)

Structure (SMILES): CC[C@H]1OC(=O)[C@H](C)[C@@H](O[C@H]2C[C@@](C)(OC)[C@@H](O)[C@H](C)O2)[C@H](C)[C@@H](O[C@@H]2O[C@H](C)C[C@H](N(C)C)[C@H]2O)[C@](C)(O)C[C@@H](C)C(=O)[C@H](C)[C@@H](O)[C@]1(C)O [erythromycin]
- MIC (S. aureus 3511; Staphylococcus aureus, 3511): > 256 µM
- MIC (S. aureus 3126; Staphylococcus aureus, 3126): 128 µM (≈ 93.9 µg/mL)
- MIC (S. aureus 1870; Staphylococcus aureus, 1870): > 256 µM
- MIC (S. aureus 5157; Staphylococcus aureus, 5157): 16 µM (≈ 11.7 µg/mL)
- MIC (S. aureus 1630; Staphylococcus aureus, 1630): > 256 µM
- MIC (S. aureus 2122; Staphylococcus aureus, 2122): > 256 µM
- MIC (S. aureus 3518; Staphylococcus aureus, 3518): > 256 µM
- MIC (S. aureus 3359; Staphylococcus aureus, 3359): > 256 µM
- MIC (S. aureus 4761; Staphylococcus aureus, 4761): > 256 µM
- MIC (S. aureus 0027; Staphylococcus aureus, 0027): > 256 µM
- MIC (S. aureus 1635; Staphylococcus aureus, 1635): > 256 µM
- MIC (S. aureus 5159; Staphylococcus aureus, 5159): 16 µM (≈ 11.7 µg/mL)
- MIC (S. aureus 5156; Staphylococcus aureus, 5156): > 256 µM
